From US20240158348A1, “HERBICIDAL CYCLIC AMIDES N-SUBSTITUTED WITH A HALOALKYLSULFONYLANILIDE GROUP” (FMC Corporation, priority 2021, published 2024)

Tests used:
Format in all cases: in vivo
kochia (Bassia scoparia) [1] = assay: Test C preemergence, kochia; conditions: 0 is no effect, 100 is complete control
Text: (§1) Seeds of plant species selected from blackgrass (Alopecurus myosuroides), corn (Zea mays), foxtail, giant (giant foxtail, Setaria faberi), goosegrass (Eleusine indica), kochia (Bassia scoparia), oat, wild (wild oat, Avena fatua), pigweed, palmer (palmer amaranth, Amaranthus palmeri), ragweed (common ragweed, Ambrosia artemisiifolia), ryegrass, Italian (Italian ryegrass, Lolium multiflorum), soybean (Glycine max) and wheat (Triticum aestivum) were planted into a blend of loam soil and sand and treated preemergence with a directed soil spray using test chemicals formulated in a non-phytotoxic solvent mixture which included a surfactant.
(§2) At the same time, plants selected from these crop and weed species and also galium (catchweed bedstraw, Galium aparine) and horseweed (Erigeron canadensis) were planted in pots containing the same blend of loam soil and sand and treated with postemergence applications of test chemicals formulated in the same manner. Plants ranged in height from 2 to 10 cm and were in the one- to two-leaf stage for the postemergence treatment. Treated plants and untreated controls were maintained in a greenhouse for 10 or 12 days, after which time all treated plants were compared to untreated controls and visually evaluated for injury. Plant response ratings, summarized in Table A, are based on a 0 to 100 scale where 0 is no effect and 100 is complete control. A dash (-) response means no test result.

[2] = test system: goosegrass (Eleusine indica); assay: Test C postemergence, goosegrass; conditions: visual injury, 0 to 100 scale (0 no effect, 100 complete control)
Text: as §1, §2

[3] = test system: foxtail, giant (giant foxtail, Setaria faberi); assay: Test C preemergence, giant foxtail; conditions: 0 is no effect, 100 is complete control
Text: as §1, §2

[4] = test system: wheat (Triticum aestivum); assay: Test C postemergence, wheat; conditions: visual injury, 0 to 100 scale (0 no effect, 100 complete control)
Text: as §1, §2

[5] = test system: sedge, umbrella (small-flower umbrella sedge, Cyperus difformis); assay: Test D flooded paddy test, umbrella sedge; design: key: 0 = no effect, 100 = complete control; conditions: 250 g ai/ha, Flood; applied to paddy water at 2-leaf stage; visual rating after 13 days; scale 0 (no effect) to 100 (complete control)
Experimental: (§3) Plant species in the flooded paddy test selected from barnyardgrass (Echinochloa crusgalli), ducksalad (Heteranthera limosa), rice (Oryza sativa), and sedge, umbrella (small-flower umbrella sedge, Cyperus difformis) were grown to the 2-leaf stage for testing. At time of treatment, test pots were flooded to 3 cm above the soil surface, treated by application of test compounds directly to the paddy water, and then maintained at that water depth for the duration of the test. Treated plants and controls were maintained in a greenhouse for 13 days, after which time all species were compared to controls and visually evaluated. Plant response ratings, summarized in Table B, are based on a scale of 0 to 100 where 0 is no effect and 100 is complete control. A dash (-) response means no test result.

soybean (Glycine max) [6] = assay: Test C postemergence, soybean; conditions: visual injury, 0 to 100 scale (0 no effect, 100 complete control)
Text: as §1, §2

[7] = test system: oat, wild (wild oat, Avena fatua); assay: Test C postemergence, wild oat; conditions: visual injury, 0 to 100 scale (0 no effect, 100 complete control)
Text: as §1, §2

[8] = test system: foxtail, giant (giant foxtail, Setaria faberi); assay: Test C postemergence, giant foxtail; conditions: visual injury, 0 to 100 scale (0 no effect, 100 complete control)
Text: as §1, §2

[9] = test system: ryegrass, Italian (Italian ryegrass, Lolium multiflorum); assay: Test C postemergence, Italian ryegrass; conditions: visual injury, 0 to 100 scale (0 no effect, 100 complete control)
Text: as §1, §2

corn (Zea mays) [10] = assay: Test C preemergence, corn; conditions: 0 is no effect, 100 is complete control
Text: as §1, §2

[11] = test system: ragweed (common ragweed, Ambrosia artemisiifolia); assay: Test C preemergence, ragweed; conditions: 0 is no effect, 100 is complete control
Text: as §1, §2

[12] = test system: oat, wild (wild oat, Avena fatua); assay: Test C preemergence, wild oat; conditions: 0 is no effect, 100 is complete control
Text: as §1, §2

[13] = test system: goosegrass (Eleusine indica); assay: Test C preemergence, goosegrass; conditions: 0 is no effect, 100 is complete control
Text: as §1, §2

[14] = test system: pigweed, palmer (palmer amaranth, Amaranthus palmeri); assay: Test C preemergence, palmer amaranth; conditions: 0 is no effect, 100 is complete control
Text: as §1, §2

[15] = test system: ducksalad (Heteranthera limosa); assay: Test D flooded paddy test, ducksalad; design: key: 0 = no effect, 100 = complete control; conditions: 250 g ai/ha, Flood; applied to paddy water at 2-leaf stage; visual rating after 13 days; scale 0 (no effect) to 100 (complete control)
Experimental: as §3

[16] = test system: pigweed, palmer (palmer amaranth, Amaranthus palmeri); assay: Test C postemergence, palmer amaranth; conditions: visual injury, 0 to 100 scale (0 no effect, 100 complete control)
Text: as §1, §2

[17] = test system: wheat (Triticum aestivum); assay: Test C preemergence, wheat; conditions: 0 is no effect, 100 is complete control
Text: as §1, §2

[18] = test system: ragweed (common ragweed, Ambrosia artemisiifolia); assay: Test C postemergence, ragweed; conditions: visual injury, 0 to 100 scale (0 no effect, 100 complete control)
Text: as §1, §2

kochia (Bassia scoparia) [19] = assay: Test C postemergence, kochia; conditions: visual injury, 0 to 100 scale (0 no effect, 100 complete control)
Text: as §1, §2

corn (Zea mays) [20] = assay: Test C postemergence, corn; conditions: visual injury, 0 to 100 scale (0 no effect, 100 complete control)
Text: as §1, §2

rice (Oryza sativa) = assay: Test D flooded paddy test, rice; design: key: 0 = no effect, 100 = complete control; conditions: 250 g ai/ha, Flood; applied to paddy water at 2-leaf stage; visual rating after 13 days; scale 0 (no effect) to 100 (complete control)
Experimental: as §3

[21] = test system: ryegrass, Italian (Italian ryegrass, Lolium multiflorum); assay: Test C preemergence, Italian ryegrass; conditions: 0 is no effect, 100 is complete control
Text: as §1, §2

[22] = test system: barnyardgrass (Echinochloa crusgalli); assay: Test D flooded paddy test, barnyardgrass; design: key: 0 = no effect, 100 = complete control; conditions: 250 g ai/ha, Flood; applied to paddy water at 2-leaf stage; visual rating after 13 days; scale 0 (no effect) to 100 (complete control)
Experimental: as §3

[23] = test system: blackgrass (Alopecurus myosuroides); assay: Test C postemergence, blackgrass; conditions: visual injury, 0 to 100 scale (0 no effect, 100 complete control)
Text: as §1, §2

[24] = test system: horseweed (Erigeron canadensis); assay: Test C postemergence, horseweed; conditions: visual injury, 0 to 100 scale (0 no effect, 100 complete control)
Text: as §1, §2

soybean (Glycine max) [25] = assay: Test C preemergence, soybean; conditions: 0 is no effect, 100 is complete control
Text: as §1, §2

## Cc1cc(C)c(N(COC(=O)C(C)(C)C)S(=O)(=O)C(F)(F)F)cc1N1CCC(OCC2CCC2)C1=O (stereo not drawn) [Compound 56]
Kochia (Bassia scoparia) [1]; 31 g ai/ha Preemergence
  Plant response rating (0 to 100 scale), Kochia: 0
Kochia (Bassia scoparia) [1]; 125 g ai/ha Preemergence
  Plant response rating (0 to 100 scale), Kochia: 70
[2]; 31 g ai/ha Postemergence
  Goosegrass plant response rating: 0
[2]; 125 g ai/ha Postemergence
  Goosegrass plant response rating: 60
[3]; 31 g ai/ha Preemergence
  Plant response rating (0 to 100 scale), Foxtail, Giant: 0
[3]; 125 g ai/ha Preemergence
  Plant response rating (0 to 100 scale), Foxtail, Giant: 80
[4]; 31 g ai/ha Postemergence
  Wheat plant response rating: 0
[4]; 125 g ai/ha Postemergence
  Wheat plant response rating: 70
[5]
  Plant response rating, Sedge, Umbrella: 95
Soybean (Glycine max) [6]; 31 g ai/ha Postemergence
  Soybean plant response rating: 40
Soybean (Glycine max) [6]; 125 g ai/ha Postemergence
  Soybean plant response rating: 50
[7]; 31 g ai/ha Postemergence
  Oat, Wild plant response rating: 10
[7]; 125 g ai/ha Postemergence
  Oat, Wild plant response rating: 10
[8]; 31 g ai/ha Postemergence
  Foxtail, Giant plant response rating: 10
[8]; 125 g ai/ha Postemergence
  Foxtail, Giant plant response rating: 40
[9]; 31 g ai/ha Postemergence
  Ryegrass, Italian plant response rating: 0
[9]; 125 g ai/ha Postemergence
  Ryegrass, Italian plant response rating: 60
Corn (Zea mays) [10]; 31 g ai/ha Preemergence
  Plant response rating (0 to 100 scale), Corn: 0
Corn (Zea mays) [10]; 125 g ai/ha Preemergence
  Plant response rating (0 to 100 scale), Corn: 10
[11]; 31 g ai/ha Preemergence
  Plant response rating (0 to 100 scale), Ragweed: 0
[11]; 125 g ai/ha Preemergence
  Plant response rating (0 to 100 scale), Ragweed: 30
[12]; 31 g ai/ha Preemergence
  Plant response rating (0 to 100 scale), Oat, Wild: 0
[12]; 125 g ai/ha Preemergence
  Plant response rating (0 to 100 scale), Oat, Wild: 0
[13]; 31 g ai/ha Preemergence
  Plant response rating (0 to 100 scale), Goosegrass: 10
[13]; 125 g ai/ha Preemergence
  Plant response rating (0 to 100 scale), Goosegrass: 90
[14]; 31 g ai/ha Preemergence
  Plant response rating (0 to 100 scale), Pigweed, Palmer: 10
[14]; 125 g ai/ha Preemergence
  Plant response rating (0 to 100 scale), Pigweed, Palmer: 90
[15]
  Plant response rating, Ducksalad: 85
[16]; 31 g ai/ha Postemergence
  Pigweed, Palmer plant response rating: 0
[16]; 125 g ai/ha Postemergence
  Pigweed, Palmer plant response rating: 40
[17]; 31 g ai/ha Preemergence
  Plant response rating (0 to 100 scale), Wheat: 0
[17]; 125 g ai/ha Preemergence
  Plant response rating (0 to 100 scale), Wheat: 0
[18]; 31 g ai/ha Postemergence
  Ragweed plant response rating: 20
[18]; 125 g ai/ha Postemergence
  Ragweed plant response rating: 60
Kochia (Bassia scoparia) [19]; 31 g ai/ha Postemergence
  Kochia plant response rating: 0
Kochia (Bassia scoparia) [19]; 125 g ai/ha Postemergence
  Kochia plant response rating: 30
Corn (Zea mays) [20]; 31 g ai/ha Postemergence
  Corn plant response rating: 0
Corn (Zea mays) [20]; 125 g ai/ha Postemergence
  Corn plant response rating: 30
Rice (Oryza sativa)
  Plant response rating, Rice: 0
[21]; 31 g ai/ha Preemergence
  Plant response rating (0 to 100 scale), Ryegrass, Italian: 30
[21]; 125 g ai/ha Preemergence
  Plant response rating (0 to 100 scale), Ryegrass, Italian: 80
[22]
  Plant response rating, Barnyardgrass: 35
[23]; 31 g ai/ha Postemergence
  Blackgrass plant response rating: 0
[23]; 125 g ai/ha Postemergence
  Blackgrass plant response rating: 20
[24]; 31 g ai/ha Postemergence
  Horseweed plant response rating: 20
[24]; 125 g ai/ha Postemergence
  Horseweed plant response rating: 80
Soybean (Glycine max) [25]; 31 g ai/ha Preemergence
  Plant response rating (0 to 100 scale), Soybean: 0
Soybean (Glycine max) [25]; 125 g ai/ha Preemergence
  Plant response rating (0 to 100 scale), Soybean: 30
